The series can be described thus: Stability study of THC in a receiver solution. The settings on record: receiver solution EtOH:H2O (50/50 vol); 3, 6, 8, 24, 30, 48 hours. The series is classed as physicochemical. An excerpt:
FIG. 2: Stability study of THC in a receiver solution.

In the case of `CCCCCc1cc(O)c2c(c1)OC(C)(C)[C@@H]1CCC(C)=C[C@@H]21` [THC, Delta-9-tetrahydrocannabinol], the “THC concentration over time in receiver solution (stability)” value is reported as “does not decay over time”.

These data come from US20230241083A1, “FORMULATION COMPRISING CANNABINOIDS” (CANNOVEX BV, priority 2020, published 2023).
